Results reported in US20250177548A1, “FUSOGENIC PEPTIDE COMPOSITIONS AND METHODS OF CARGO DELIVERY” (CLEMSON UNIVERSITY, priority 2022, published 2025).
Non-standard residues stand in square brackets, D forms with d. Residues, ends and D or L forms follow the SMILES beside them.

How the values were obtained:
CSNK2A1 mRNA [1] = experiment: qPCR of CSNK2A1 mRNA in CAOV3 cells; type: cell-based; details: CAOV3, 48 hours, 80:1
Protocol: (§1) qRT-PCR. Cells were seeded at 50,000 cells per well and treated with siRNA targeting CSNK2A1 (siCSNK2A1 #s3638, Thermo Fisher Scientific) at increasing N:P ratios and incubated for a total of 48 hours in McCoys 5A/DMEM-10% FBS. Treated cells were washed with 1×PBS at 24 hours and fresh media was added. RNAisolation was completed using a Qiagen Mini-RNeasy Kit (Qiagen, Hilden, Germany) according to the manufacturer's protocol. RNA isolation quality and quantity were measured through the Gen5 protocol using a Take3 plate (BioTek). RNA was reverse-transcribed using the QuantiTect Reverse Transcription kit (Qiagen). Quantitative real-time PCR was completed with a QuantStudio 3 qPCR system (Applied Biosystems) using Applied Biosystems TaqMan FAST Master Mix (Thermo Fisher) and CSNK2A1 (ID #Hs00751002_s1) and 18S (ID #Hs99999901_s1) predesigned TaqMan probes, according to the manufacturer's protocol.

RNase A = experiment: gel assay of siRNA protection from RNase A degradation; type: in vitro ADME; details: 1 hour, several N:P ratios
Protocol: Gel Shift Assays. DIVA3, DIV3H, and DIV3W (all three denoted as DIV3 (X)) peptides suspended in RNase-free water (10 μM), were thawed, and kept on ice prior to complexation with 10 μM of negative control siGENOME non-targeting siRNA #5 (siNT, GE Healthcare Dharmacon, Lafayette, CO) in RNase-free water and incubated for 20 minutes at room temperature to allow the formation of DIV3 (X)-siNT complexes. Various molar ratios of peptides were complexed with siNT at increasing N:P molar ratios to determine the minimum molar ratio necessary to completely complex free siRNAs using an electrophoretic mobility shift assay. To determine the ability of each peptide variant to protect siRNAs from degradation, DIV3 (X)-siNT complexes or siNT alone was left untreated or incubated with either 50% v/v FBS or 5 μg/mL RNase A at 37° C. for one hour. Next, complexes were dissociated using 6% sodium dodecyl sulfate (SDS). Samples were added to a 2% agarose gel and run at 100 V. Gels were stained with ethidium bromide, destained with Milli-Q water, and imaged using a ChemiDoc XRS imager (Bio-Rad, Hercules, CA).
Characterization of Nanoparticle Size and Stability. To determine the minimum molar ratio necessary to completely complex free siRNAs, increasing N:P molar ratios of LHRH, DIV3W, and LHRH-DIV3W peptide were complexed with siRNAs and electrophoresed using a electrophoretic mobility shift assay. Molar ratios, shown as N:P, are representations of the molar amine peptide content in relation to 1 mole of phosphate group siRNA content. To determine the ability of the peptides to protect siRNAs from serum- or RNase-mediated degradation, LHRH and LHRH-DIV3W complexes were formed in RNase-free water with siNT at increasing N:P molar ratios and incubated at 37° C., 5% CO2, 50% v/v FBS, 5 μg/mL RNase A, or 50% v/v RNase free water for 1 hour. Peptide/siRNA complexes were dissociated using 6% sodium dodecyl sulfate (SDS) prior to electrophoresis in a 2% agarose gel run at 100 V. Gels were stained with ethidium bromide, washed with Milli-Q water, and imaged with a BioRad ChemiDoc XRS imager (BioRad, Hercules, CA).
Peptides VA-LD and GF-LD, comprising the cleavable linker VA or GLFG, respectively, between the LHRH target sequence and the DIV3W peptide, and non targeting siRNA were electrostatically complexed at increasing N:P ratios then subjected to agarose gel electrophoresis to determine optimal siRNA binding for each peptide. […] Peptide-siRNA nanocomplexes at increasing N:P ratios for peptides for VA-LD (FIG. 30A) and GF-LD (FIG. 30C) were incubated in either Rnase A enzyme or in 50% fetal bovine serum (FBS) for 1 h, dissociated using SDS then subjected to gel electrophoresis to visualize siRNA bands. Gels showing increasing N:P ratios of peptide:siRNA for VA-LD (FIG. 30B) and GF-LD (FIG. 30D) from 20:1 to 80:1 N:P; white bands are indicative of intact siRNA

OVCAR3 cells = experiment: cellular uptake of labeled siRNA by flow cytometry; type: cell-based; details: for uptake efficiency: OVCAR3, siNT-DY547, 4 hours
Protocol: Cellular Uptake. OVCAR3 and CAOV3 cells were prepared at 50,000 cells per well in a 24-well plate. […] Post-incubation, media was aspirated and cells were washed with 1× PBS. To counterstain the nuclei, SuperSignal NucBlue Hoechst stain (Thermo Fisher, Waltham, MA) was added to the cells for 30 minutes, followed by an additional 1×PBS wash. Subsequent imaging was performed using an EVOS FL Microscope (Thermo Fisher) at 10× magnification. For flow cytometric analysis, cells were detached, resuspended in 1× PBS, and analyzed using an Attune NXT Acoustic flow cytometer (Invitrogen, Carlsbad, CA) with the blue laser line and BL2 (574/26 nm) channel.
Cellular Uptake and Targeting Specificity. Observation of cell uptake was performed by seeding OVCAR3 and CAOV3 cells at a density of 50,000 cells per well in a 24-well plate. LHRH and LHRH-DIV3W peptides were complexed with […] as previously described and delivered to cells at 20:1 to 80:1 N:P ratios. Each cell line was incubated with tandem peptide complexes for both 4- and 24-hour treatment periods. Following incubation, cell media was removed, and cells were washed with 1× PBS prior to the addition of 500 μL of 1×PBS and SuperSignal NucBlue Hoescht 33342 nuclear stain (Thermo Fisher, Waltham, MA). Cellular imaging was completed using an EVOS FL Microscope (Thermo Fisher) at 10×, 20×, and 40× magnification. Flow cytometry was completed after cell imaging and cells were trypsinized, resuspended in 1×PBS, and analyzed with an Attune NXT Acoustic Flow Cytometer (Invitrogen) with the red laser line and RL2 […] channel.

CSNK2A1 mRNA [2] = experiment: qPCR of CSNK2A1 mRNA in OVCAR3 cells; type: cell-based; details: maximum; ratio and cell line not stated at the place
Protocol: as §1
Gene and Protein Knockdown. Bioactivity of siRNAs was determined via qPCR and western blot analysis. OVCAR3 or CAOV3 cells were seeded at 50,000 cells per well as previously described and treated with siRNA targeting CSNK2A1 and siNT at N:P ratios 30:1, 40:1, 50:1, 60:1, and 70:1. LHRH-DIV3W peptide complexed with either siNT or siCSNK2A1 was incubated for a total of 48 hours in RPMI 1640/DMEM-10% FBS, with one media exchange occurring after the 24-hour timepoint. Treated cells were washed with 1×PBS at 24 hours and fresh media was added. RNA isolation was completed using a Qiagen Mini-RNeasy Kit (Qiagen, Hilden, Germany) according to the manufacturer's protocol. RNA isolation quality and quantity was measured through the Gen5 protocol using a Take3 plate (BioTek). RNA was reverse transcribed using the QuantiTect Reverse Transcription kit (Qiagen) according to the manufacturer's protocol. Quantitative real-time PCR was completed with a QuantStudio 3 qPCR system (Applied Biosystems, Waltham, MA) using Applied Biosystems TaqMan FAST Master Mix (Thermo Fisher) and CSNK2A1 (ID #Hs00751002_s1) and 18S (ID #Hs99999901_s1) predesigned TaqMan probes according to the manufacturer's protocol.

[3] = dynamic light scattering, size and zeta potential of peptide/siRNA complexes; type: physicochemical
Protocol: Dynamic Light Scattering and Transmission Electron Microscopy. DIV3 (X)-siNT complexes were prepared at 2 mg/mL in RNase-free water. Hydrodynamic size and surface charge of the peptide/siRNA complexes were determined using a Nano ZS Zetasizer (Malvern Pananalytical, Malvern, UK). All data were recorded using Malvern's Zetasizer software.
To determine nanoparticle size and zeta potential, peptides resuspended in RNase-free water (10 μM) were thawed and kept on ice prior to complexation with 10 μM of siNT in RNase-free water and incubated for 20 minutes at room temperature to form DIV3W-siNT and LHRH-DIV3W-siNT complexes. Peptide complexes were prepared at 2 mg/mL in RNase-free water. Hydrodynamic size and surface charge analysis was conducted using a Malvern Nano ZS Zetasizer (Malvern Panalytical, Malvern, UK). All data was analyzed using Malvern's Zetasizer software.

[4] = system: MCF10a breast epithelial cells; experiment: MTS cell viability assay, healthy cells; type: cell-based; details: 48 h (FIG. 25: DIV3W-siNT complexes)

intact siRNA after incubation with RNase A (RNase A): Minimal degradation | hydrodynamic diameter ([3]; DIV3 (X) peptide/siRNA complex at 60:1 ratio): around 100 nm | zeta potential ([3]; DIV3 (X) peptide/siRNA complexes): ~30 mV
SMILES: CC[C@H](C)[C@H](NC(=O)[C@H](CC(=O)O)NC(=O)[C@H](C)NC(=O)[C@@H](NC(=O)[C@@H](NC(=O)[C@H](CC(=O)O)NC(=O)[C@H](Cc1c[nH]c2ccccc12)NC(=O)[C@@H](NC(=O)[C@@H](NC(=O)[C@H](CC(=O)O)NC(=O)[C@H](C)NC(=O)[C@@H](NC(=O)[C@@H](NC(=O)[C@H](CC(=O)O)NC(=O)[C@H](C)NC(=O)[C@H](CCC(=O)O)NC(=O)[C@@H](N)Cc1c[nH]c2ccccc12)[C@@H](C)CC)C(C)C)[C@@H](C)CC)C(C)C)[C@@H](C)CC)C(C)C)C(=O)N[C@H](C(=O)N[C@@H](C)C(=O)NCC(=O)NCC(=O)NCC(=O)N[C@H](CCCNC(=N)N)C(=O)N[C@H](CCCNC(=N)N)C(=O)N[C@H](CCCNC(=N)N)C(=O)N[C@H](CCCNC(=N)N)C(=O)N[C@H](CCCNC(=N)N)C(=O)N[C@H](CCCNC(=N)N)C(=O)N[C@H](CCCNC(=N)N)C(=O)N[C@H](CCCNC(=N)N)C(=O)N[C@H](CCCNC(=N)N)C(=O)O)C(C)C [DIV3W] (H-WEADIVADIVWDIVADIVAGGG[dR][dR][dR][dR][dR][dR][dR][dR][dR]-OH)
CSNK2A1 mRNA knockdown, maximum (CSNK2A1 mRNA [1]): 80% | siRNA internalization efficiency (OVCAR3 cells; OVCAR3, at each N:P ratio): approximately 65% | uptake efficiency (OVCAR3 cells; 40:1): 70.0% | uptake efficiency (OVCAR3 cells; 60:1): 69.7% | uptake efficiency (OVCAR3 cells; 80:1): 66.6% | mRNA reduction (CSNK2A1 mRNA [2]): up to 94% | cytotoxicity in healthy cells [4]: no cytotoxic effects were observed
